What follows are compounds tested on HIV-IIIb (assay: Antiviral assay in MT4 cells). Conditions: Human immunodeficiency virus 1, IIIB, MT4, 120 h, MT4 cells infected with HIV-IIIb, 5 days, CellTiter-Glo; read-out: EC50 nM in MT-4.
Assay type: cell-based
Method: For the antiviral assay utilizing MT4 cells, 0.4 μL of 189X test concentration of 3-fold serially diluted compound in DMSO was added to 40 μL of cell growth medium (RPMI 1640, 10% FBS, 1% penicilline/Streptomycine, 1% L-Glutamine, 1% HEPES) in each well of 384-well assay plates (10 concentrations) in quidruplicate.
1 mL aliquots of 2×10^6 MT4 cells are pre-infected for 1 and 3 hours respectively at 37° C. with 25 μL (MT4) or of either cell growth medium (mock-infected) or a fresh 1:250 dilution of an HIV-IIIb concentrated ABI stock (0.004 m.o.i. for MT4 cells). Infected and uninfected cells are diluted in cell growth medium and 35 μL of 2000 (for MT4) cells is added to each well of the assay plates.
Assay plates were then incubated in a 37° C. incubator. After 5 days of incubation, 25 μL of 2× concentrated CellTiter-Glo™ Reagent (catalog # G7573, Promega Biosciences, Inc., Madison, Wis.) was added to each well of the assay plate. Cell lysis was carried out by incubating at room temperature for 2-3 minutes, and then chemiluminescence was read using the Envision reader (PerkinElmer).
`C[C@H](NC(=O)c1cn2c(c(O)c1=O)C(=O)N1[C@H]3CC[C@H](C3)O[C@@H]1C2)c1ccc(F)cc1F` [Compound 14, (2R,5S,13aR)—N—((S)-1-(2,4-difluorophenyl)ethyl)-8-hydroxy-7,9-dioxo-2,3,4,5,7,9,13,13a-octahydro-2,5-methanopyrido[1′,2′:4,5]pyrazino[2,1-b][1,3]oxazepine-10-carboxamide] gave an EC50 of 65.5 nM. For `O=C(NCc1ccc(F)cc1)c1cn2c(c(O)c1=O)C(=O)N1[C@@H]3CC[C@@H](C3)O[C@H]1C2` [Compound 15, (2 S,5R,13aS)—N-(4-fluorobenzyl)-8-hydroxy-7,9-dioxo-2,3,4,5,7,9,13,13a-octahydro-2,5-methanopyrido[1′,2′:4,5]pyrazino[2,1-b][1,3]oxazepine-10-carboxamide], the EC50 was 2.2 nM. Work on `O=C(NCc1cccc(F)c1F)c1cn2c(c(O)c1=O)C(=O)N1[C@@H]3CC[C@@H](C3)O[C@H]1C2` [Compound 16, (2S,5R,13aS)—N-(2,3-difluorobenzyl)-8-hydroxy-7,9-dioxo-2,3,4,5,7,9,13,13a-octahydro-2,5-methanopyrido[1′,2′:4,5]pyrazino[2,1-b][1,3]oxazepine-10-carboxamide] yielded an EC50 of 1.5 nM. `O=C(NCc1ccc(Cl)cc1F)c1cn2c(c(O)c1=O)C(=O)N1[C@@H]3CC[C@@H](C3)O[C@H]1C2` [Compound 17, (2 S,5R,13aS)—N-(4-chloro-2-fluorobenzyl)-8-hydroxy-7,9-dioxo-2,3,4,5,7,9,13,13a-octahydro-2,5-methanopyrido[1′,2′:4,5]pyrazino[2,1-b][1,3]oxazepine-10-carboxamide] was tested, and the EC50 was 5.9 nM. In the case of `O=C(NCc1ccc(F)c(F)c1)c1cn2c(c(O)c1=O)C(=O)N1[C@@H]3CC[C@@H](C3)O[C@H]1C2` [Compound 18, (2S,5R,13aS)—N-(3,4-difluorobenzyl)-8-hydroxy-7,9-dioxo-2,3,4,5,7,9,13,13a-octahydro-2,5-methanopyrido[1′,2′:4,5]pyrazino[2,1-b][1,3]oxazepine-10-carboxamide], the EC50 is reported as 4.1 nM. For `O=C(NCc1ccc(F)cc1F)c1cn2c(c(O)c1=O)C(=O)N1C(C2)[N@]2CCC[C@H]1C2` (stereo partly drawn) [Compound 19, (1R,5S)—N-(2,4-difluorobenzyl)-8-hydroxy-7,9-dioxo-2,3,4,5,7,9,13,13a-octahydro-1,5-methanopyrido[1′,2′:4,5]pyrazino[1,2-a][1,3]diazepine-10-carboxamide], the EC50 was 2.8 nM. With `O=C(NCc1ccc(F)cc1F)c1cn2c(c(O)c1=O)C(=O)N1C(C2)[N@@]2CCC[C@@H]1C2` (stereo partly drawn) [Compound 20, (1S,5R)—N-(2,4-difluorobenzyl)-8-hydroxy-7,9-dioxo-2,3,4,5,7,9,13,13a-octahydro-1,5-methanopyrido[1′,2′:4,5]pyrazino[1,2-a][1,3]diazepine-10-carboxamide] the EC50 was 3.3 nM. `C[C@H](NC(=O)c1cn2c(c(O)c1=O)C(=O)N1[C@@H]3CC[C@@H](C3)O[C@H]1C2)c1ccc(F)cc1` [Compound 21, (2S,5R,13aS)—N—((S)-1-(4-fluorophenyl)ethyl)-8-hydroxy-7,9-dioxo-2,3,4,5,7,9,13,13a-octahydro-2,5-methanopyrido[1′,2′:4,5]pyrazino[2,1-b][1,3]oxazepine-10-carboxamide] was tested, and the EC50 was 38.3 nM. `C[C@H](NC(=O)c1cn2c(c(O)c1=O)C(=O)N1[C@H]3CC[C@H](C3)O[C@@H]1C2)c1ccc(F)cc1` [Compound 22, (2R,5S,13aR)—N—((S)-1-(4-fluorophenyl)ethyl)-8-hydroxy-7,9-dioxo-2,3,4,5,7,9,13,13a-octahydro-2,5-methanopyrido[1′,2′:4,5]pyrazino[2,1-b][1,3]oxazepine-10-carboxamide] showed an EC50 of 64.3 nM. Compound `O=C(NCc1ccccc1F)c1cn2c(c(O)c1=O)C(=O)N1[C@@H]3CC[C@@H](C3)O[C@H]1C2` [Compound 23, (2 S,5R,13aS)—N-(2-fluorobenzyl)-8-hydroxy-7,9-dioxo-2,3,4,5,7,9,13,13a-octahydro-2,5-methanopyrido[1′,2′:4,5]pyrazino[2,1-b][1,3]oxazepine-10-carboxamide] has an EC50 of 2.3 nM. For `O=C(NCc1cc(F)cc(F)c1)c1cn2c(c(O)c1=O)C(=O)N1[C@@H]3CC[C@@H](C3)O[C@H]1C2` [Compound 24, (2 S,5R,13aS)—N-(3,5-difluorobenzyl)-8-hydroxy-7,9-dioxo-2,3,4,5,7,9,13,13a-octahydro-2,5-methanopyrido[1′,2′: 4,5]pyrazino[2,1-b][1,3]oxazepine-10-carboxamide], the EC50 was 6.1 nM. With `O=C(NCc1ccc(F)c(C(F)(F)F)c1)c1cn2c(c(O)c1=O)C(=O)N1[C@@H]3CC[C@@H](C3)O[C@H]1C2` [Compound 25, (2S,5R,13aS)—N-(4-fluoro-3-(trifluoromethyl)benzyl)-8-hydroxy-7,9-dioxo-2,3,4,5,7,9,13,13a-octahydro-2,5-methanopyrido[1′,2′:4,5]pyrazino[2,1-b][1,3]oxazepine-10-carboxamide] the EC50 was 26.2 nM. Work on `O=C(NCc1ccc(Cl)c(F)c1)c1cn2c(c(O)c1=O)C(=O)N1[C@@H]3CC[C@@H](C3)O[C@H]1C2` [Compound 26, (2 S,5R,13aS)—N-(4-chloro-3-fluorobenzyl)-8-hydroxy-7,9-dioxo-2,3,4,5,7,9,13,13a-octahydro-2,5-methanopyrido[1′,2′: 4,5]pyrazino[2,1-b][1,3]oxazepine-10-carboxamide] yielded an EC50 of 10.3 nM. Compound `O=C(NC1(c2ccc(F)cc2F)CC1)c1cn2c(c(O)c1=O)C(=O)N1C(C2)O[C@H]2CC[C@@H]1C2` (stereo partly drawn) [Compound 27, (2 S,5R)—N-(1-(2,4-difluorophenyl)cyclopropyl)-8-hydroxy-7,9-dioxo-2,3,4,5,7,9,13,13a-octahydro-2,5-methanopyrido[1′,2′:4,5]pyrazino[2,1-b][1,3]oxazepine-10-carboxamide] has an EC50 of 4.4 nM. With `O=C(NC1(c2ccc(F)cc2F)CC1)c1cn2c(c(O)c1=O)C(=O)N1C(C2)O[C@H]2CCC[C@@H]1C2` (stereo partly drawn) [Compound 28, (2 S,6R)—N-(1-(2,4-difluorophenyl)cyclopropyl)-9-hydroxy-8,10-dioxo-3,4,5,6,8,10,14,14a-octahydro-2H-2,6-methanopyrido[1′,2′:4,5]pyrazino[2,1-b][1,3]oxazocine-11-carboxamide] the EC50 was 15.6 nM. `O=C(NC1(c2ccc(F)cc2F)CC1)c1cn2c(c(O)c1=O)C(=O)N1C(C2)O[C@@H]2CCC[C@H]1C2` (stereo partly drawn) [Compound 29, (2R,6S)—N-(1-(2,4-difluorophenyl)cyclopropyl)-9-hydroxy-8,10-dioxo-3,4,5,6,8,10,14,14a-octahydro-2H-2,6-methanopyrido[1′,2′:4,5]pyrazino[2,1-b][1,3]oxazocine-11-carboxamide] gave an EC50 of 13.9 nM. With `O=C(NC1(c2ccc(F)cc2F)CC1)c1cn2c(c(O)c1=O)C(=O)N1C(C2)O[C@@H]2CC[C@H]1C2` (stereo partly drawn) [Compound 31, (2R,5S)—N-(1-(2,4-difluorophenyl)cyclopropyl)-8-hydroxy-7,9-dioxo-2,3,4,5,7,9,13,13a-octahydro-2,5-methanopyrido[1′,2′:4,5]pyrazino[2,1-b][1,3]oxazepine-10-carboxamide] the EC50 was 9 nM. In the case of `O=C(NC1(c2ccc(F)cc2F)CCC1)c1cn2c(c(O)c1=O)C(=O)N1C(C2)O[C@H]2CC[C@@H]1C2` (stereo partly drawn) [Compound 32, (2S,5R)—N-(1-(2,4-difluorophenyl)cyclobutyl)-8-hydroxy-7,9-dioxo-2,3,4,5,7,9,13,13a-octahydro-2,5-methanopyrido[1′,2′: 4,5]pyrazino[2,1-b][1,3]oxazepine-10-carboxamide], the EC50 is reported as 14 nM. `O=C(NC1(c2ccc(F)cc2F)CCCC1)c1cn2c(c(O)c1=O)C(=O)N1C(C2)O[C@H]2CC[C@@H]1C2` (stereo partly drawn) [Compound 33, (2S,5R)—N-(1-(2,4-difluorophenyl)cyclopentyl)-8-hydroxy-7,9-dioxo-2,3,4,5,7,9,13,13a-octahydro-2,5-methanopyrido[1%2′: 4,5]pyrazino[2,1-b][1,3]oxazepine-10-carboxamide] gave an EC50 of 43.5 nM. With `O=C(NC1(c2ccc(F)cc2F)CCOCC1)c1cn2c(c(O)c1=O)C(=O)N1C(C2)O[C@H]2CC[C@@H]1C2` (stereo partly drawn) [Compound 35, (2S,5R)—N-(4-(2,4-difluorophenyl)tetrahydro-2H-pyran-4-yl)-8-hydroxy-7,9-dioxo-2,3,4,5,7,9,13,13a-octahydro-2,5-methanopyrido[1′,2′:4,5]pyrazino[2,1-b][1,3]oxazepine-10-carboxamide] the EC50 was 157 nM. Work on `O=C(N[C@@H](c1ccc(F)cc1F)C(F)(F)F)c1cn2c(c(O)c1=O)C(=O)N1C(C2)O[C@H]2CC[C@@H]1C2` (stereo partly drawn) [Compound 36, (2S,5R)—N—((S)-1-(2,4-difluorophenyl)-2,2,2-trifluoroethyl)-8-hydroxy-7,9-dioxo-2,3,4,5,7,9,13,13a-octahydro-2,5-methanopyrido[1′,2′:4,5]pyrazino[2,1-b][1,3]oxazepine-10-carboxamide] yielded an EC50 of 7.6 nM.

Same assay, conditions: Human immunodeficiency virus 1, IIIB, MT4, 120 h, read-out: EC50 nM in MT-4, MT4 cells infected with HIV-IIIb, 5 days, CellTiter-Glo
For `O=C(NC1(c2ccc(F)cc2F)CCCCC1)c1cn2c(c(O)c1=O)C(=O)N1C(C2)O[C@H]2CC[C@@H]1C2` (stereo partly drawn) [Compound 34, (2S,5R)—N-(1-(2,4-difluorophenyl)cyclohexyl)-8-hydroxy-7,9-dioxo-2,3,4,5,7,9,13,13a-octahydro-2,5-methanopyrido[1′,2′: 4,5]pyrazino[2,1-b][1,3]oxazepine-10-carboxamide], the EC50 was 422 nM.

— US10689399B2, “Substituted 3,4,5,6,8,10,14,14a-octahydro-2h-2,6-methanopyrido[1′,2′:4,5]pyrazino[2,1-b][1,3]oxazocines and methods for treating viral infections” (Gilead Sciences, Inc., priority 2012, dated 2020)
